Experimental data taken from patent US20170105947A1, “Appetite Suppressant Composition” (priority 2015, published 2017).
“Also recorded” adds a separate entry of the source.

Columns and labels:
[1] = in vivo; cited from earlier work
rat intestinal cells = conditions: added to rat intestinal cells / lumen of the intestine; cited from earlier work
gastric emptying = conditions: oral administration of 50-100 mg/kg, rats; cited from earlier work
food preference of dogs = type: in vivo; conditions: food containing 2,500 ppm vs untreated control
Description: During this experience non-encapsulated trans-2-hexenal in combination with other chemicals were applied to feed.

[2] = 13 wk, rat, cited from earlier work
[3] = rats vs human intake of about 350 ug/kg/day; cited from earlier work

For CCCCCCCCCCC[C@@H](C[C@@H]1OC(=O)[C@H]1CCCCCC)OC(=O)[C@H](CC(C)C)NC=O [Orlistat, tetrahydrolipstatin], the known side effects [1] is listed as “steatorrhea, fecal incontinence, frequent bowel movements and urgency, compromised absorption of fat-soluble vitamins and nutrients, increased appetite and diminished effectiveness over time”.
For CCCCC/C=C/C=C/C=O [trans, trans-2,4-decadienal], the “level of CCK in vitro” value (rat intestinal cells) is listed as “increased the level of CCK” and the gastric emptying (gastric emptying) is listed as “reduced gastric emptying”.
In the case of CCC/C=C/C=O [trans-2-hexenal], the food preference (food preference of dogs) is given as “dogs preferred the untreated control”, the “body weight and intake” value ([2]; 4000 ppm in diet) is given as “no significant reduction; also recorded: did not significantly affect feed intake or body weight” and the “changes in hematological parameters or organ weights” value ([2]; dietary levels 0, 260, 640, 1600 or 4000 ppm) is given as “did not induce any changes”. For the same molecule, the “toxic levels in rats relative to normal intake by humans” value [3] was 30 times.
